Earlier results, collected in patent publication US5691365A, “Nicotinic receptor antagonists in the treatment of neuropharmacological disorders” (University of Kentucky Research Foundation, priority 1995, dated 1997).

Test system: receptors that contain the α7, α8, or α9 subunits
Conditions: cited from earlier work

## α-bungarotoxin
  selective blockade of nicotinic receptors with α7, α8 or α9 subunits: selectively blocks receptors that contain the α7, α8, or α9 subunits
